Where a name gives a salt, the structure may show the parent alone.
Biological target: human ENPP2 (Homo sapiens (Human), UniProt Q13822)
Assay: Measurement of human ENPP2 inhibitory activity
Type: biochemical
Conditions: 1 μM test compound; 16:0-LPC substrate, 37° C., 24 hours; read-out: ENPP2 inhibition rate(%) (1 μM)
Description: 10 μL of a test compound solution (10% dimethyl sulfoxide) at each concentration and 40 μL of a 5 μg/mL human ENPP2 solution (buffer A: 100 mmol/L Tris-HCl (pH 9.0), 500 mmol/L NaCl, 5 mmol/L MgCl2, 0.05% Triton X-100) were mixed, 50 μL of a 2 mmol/L 16:0-lysophosphatidylcholine (LPC) solution (buffer A) was further added to react at 37° C. for 24 hours. Subsequently, to 10 μL of the reaction solution was added 90 μL of a measurement buffer (0.5 mmol/L aminoantipyrine, 0.3 mmol/L N-ethyl-N-(2-hydroxy-3-sulfopropyl)-3-methylaniline, 1 U/mL peroxidase, 3 U/mL choline oxidase, 100 mmol/L Tris-HCl (pH 8.5), 5 mmol/L CaCl2) to react at 37° C. for 20 minutes, and spectrophotometric determination was performed at 555 nm.
Using a standard curve, a choline production amount (enzyme activity) in each test compound was calculated, and the inhibitory activity rate of each test compound was calculated, wherein the enzyme activity in a positive control to which a test compound is not added, was a 0% inhibition rate, and the enzyme activity in a negative control to which a test compound and human ENPP2 are not added, were 100% inhibition. Further, concerning the present compounds shown in Table 3, an IC50 value was calculated from inhibitory activity rate at each concentration.

Q: Which inhibition at 1 µM does the source give for `O=C(O)CCCCCC(=O)N1CCc2c(n(CCCc3ccc(F)cc3)c3ccccc23)C1` [Example 3(19), 7-{9-[3-(4-fluorophenyl)propyl]-1,3,4,9-tetrahydro-2H-beta-carbolin-2-yl}-7-oxoheptanoic acid] here?
A: 95.1%

Q: `O=C(CC12CCC(C(=O)O)(CC1)C2)N1CCc2c(n(Cc3ccc(Cl)cc3)c3ncccc23)C1` [Example 31(189), 4-{2-[9-(4-chlorobenzyl)-5,6,8,9-tetrahydro-7H-pyrido[4′,3′:4,5]pyrrolo[2,3-b]pyridin-7-yl]-2-oxoethyl}bicyclo[2.2.1]heptane-1-carboxylic acid] was tested. Which inhibition at 1 µM did it give?
A: 99.3%

Q: For `O=C(O)CCCC(=O)N1CCc2c(n(CCCc3ccccc3)c3ncccc23)C1` [Example 9(26), 5-oxo-5-[9-(3-phenylpropyl)-5,6,8,9-tetrahydro-7H-pyrido[4′,3′:4,5]pyrrolo[2,3-b]pyridin-7-yl]pentanoic acid], which inhibition at 1 µM is on record?
A: 59.3%

Q: How did the inhibition at 1 µM turn out when `O=C(O)CCCCC(=O)N1CCc2c(n(Cc3cccs3)c3ncccc23)C1` [Example 9(59), 6-oxo-6-[9-(2-thienylmethyl)-5,6,8,9-tetrahydro-7H-pyrido[4′,3′:4,5]pyrrolo[2,3-b]pyridin-7-yl]hexanoic acid] was run?
A: 69.3%

Q: Which inhibition at 1 µM does the source give for `O=C(O)CCCCC(=O)N1CCc2c(n(CCSc3ccccc3)c3ncccc23)C1` [Example 9(31), 6-oxo-6-{9-[2-(phenylthio)ethyl]-5,6,8,9-tetrahydro-7H-pyrido[4′,3′:4,5]pyrrolo[2,3-b]pyridin-7-yl}hexanoic acid] here?
A: 82.4%

Q: How did the inhibition at 1 µM turn out when `O=C(CC12CCC(C(=O)O)(CC1)CC2)N1CCc2c(n(Cc3ccc(F)c(F)c3)c3ncccc23)C1` [Example 31(170), 4-{2-[9-(3,4-difluorobenzyl)-5,6,8,9-tetrahydro-7H-pyrido[4′,3′:4,5]pyrrolo[2,3-b]pyridin-7-yl]-2-oxoethyl}bicyclo[2.2.2]octane-1-carboxylic acid] was run?
A: 98%

Q: `CC1CN(C(=O)CCCC(C)(C)C(=O)O)Cc2c1c1cccnc1n2Cc1cccc(F)c1` (centres unmarked) [Example 23, 6-[9-(3-fluorobenzyl)-5-methyl-5,6,8,9-tetrahydro-7H-pyrido[4′,3′:4,5]pyrrolo[2,3-b]pyridin-7-yl]-2,2-dimethyl-6-oxohexanoic acid] was tested. Which inhibition at 1 µM did it give?
A: 96.2%

Q: How did the inhibition at 1 µM turn out when `COC(=O)CCCCC(=O)N1CCc2c(n(CCCc3ccccc3)c3ccccc23)C1` [Example 2, methyl 6-oxo-6-[9-(3-phenylpropyl)-1,3,4,9-tetrahydro-2H-beta-carbolin-2-yl]hexanoate] was run?
A: 67.7%

Q: For `O=C(CC12CCC(C(=O)O)(CC1)C2)N1CCc2c(n(Cc3ccc(F)cc3)c3ncccc23)C1` [Example 31(188), 4-{2-[9-(4-fluorobenzyl)-5,6,8,9-tetrahydro-7H-pyrido[4′,3′:4,5]pyrrolo[2,3-b]pyridin-7-yl]-2-oxoethyl}bicyclo[2.2.1]heptane-1-carboxylic acid], which inhibition at 1 µM is on record?
A: 98.8%

Q: For `O=C(C[C@H]1CC[C@H](C(=O)O)CC1)N1CCc2c(n(Cc3ccc(F)cc3F)c3ncccc23)C1` [Example 31(32), trans-4-{2-[9-(2,4-difluorobenzyl)-5,6,8,9-tetrahydro-7H-pyrido[4′,3′:4,5]pyrrolo[2,3-b]pyridin-7-yl]-2-oxoethyl}cyclohexanecarboxylic acid], which inhibition at 1 µM is on record?
A: 98.2%

Q: How did the inhibition at 1 µM turn out when `CC(C)(OCC(=O)N1CCc2c(n(Cc3cccc(F)c3)c3ncccc23)C1)C(=O)O` [Example 18(1), 2-{2-[9-(3-fluorobenzyl)-5,6,8,9-tetrahydro-7H-pyrido[4′,3′:4,5]pyrrolo[2,3-b]pyridin-7-yl]-2-oxoethoxy}-2-methylpropanoic acid] was run?
A: 89.6%

Q: `O=C(CC12CCC(C(=O)O)(CC1)CC2)N1CCc2c(n(Cc3cc(F)c(F)cc3F)c3ncccc23)C1` [Example 31(129), 4-{2-oxo-2-[9-(2,4,5-trifluorobenzyl)-5,6,8,9-tetrahydro-7H-pyrido[4′,3′:4,5]pyrrolo[2,3-b]pyridin-7-yl]ethyl}bicyclo[2.2.2]octane-1-carboxylic acid] was tested. Which inhibition at 1 µM did it give?
A: 99.8%

Q: With `O=C(CC12CCC(C(=O)O)(CC1)CC2)N1CCc2c(n(Cc3cc(F)cc(F)c3)c3ncccc23)C1` [Example 31(128), 4-{2-[9-(3,5-difluorobenzyl)-5,6,8,9-tetrahydro-7H-pyrido[4′,3′:4,5]pyrrolo[2,3-b]pyridin-7-yl]-2-oxoethyl}bicyclo[2.2.2]octane-1-carboxylic acid] as the compound, how does the inhibition at 1 µM read?
A: 99%

Q: `COc1cc(CC(=O)N2CCc3c(n(Cc4cc(F)cc(F)c4)c4ncccc34)C2)ccc1C(=O)O` [Example 51(23), 4-{2-[9-(3,5-difluorobenzyl)-5,6,8,9-tetrahydro-7H-pyrido[4′,3′:4,5]pyrrolo[2,3-b]pyridin-7-yl]-2-oxoethyl}-2-methoxybenzoic acid] was tested. Which inhibition at 1 µM did it give?
A: 96.2%

Q: How did the inhibition at 1 µM turn out when `CC1(C)[C@@H](CC(=O)N2CCc3c(n(Cc4ccc(F)cc4)c4ncccc34)C2)CC[C@@]1(C)C(=O)O` [Example 31(162), (1R,3R)-3-{2-[9-(4-fluorobenzyl)-5,6,8,9-tetrahydro-7H-pyrido[4′,3′:4,5]pyrrolo[2,3-b]pyridin-7-yl]-2-oxoethyl}-1,2,2-trimethylcyclopentanecarboxylic acid] was run?
A: 99.5%

Q: With `CC1(C)[C@@H](CC(=O)N2CCc3c(n(Cc4ccc(Cl)cc4F)c4ncccc34)C2)CC[C@@]1(C)C(=O)O` [Example 31(160), (1R,3R)-3-{2-[9-(4-chloro-2-fluorobenzyl)-5,6,8,9-tetrahydro-7H-pyrido[4′,3′:4,5]pyrrolo[2,3-b]pyridin-7-yl]-2-oxoethyl}-1,2,2-trimethylcyclopentanecarboxylic acid] as the compound, how does the inhibition at 1 µM read?
A: 99.5%

Q: How did the inhibition at 1 µM turn out when `O=C(CC12CCC(C(=O)O)(CC1)C2)N1CCc2c(n(Cc3ccc(F)cc3F)c3ncccc23)C1` [Example 31(182), 4-{2-[9-(2,4-difluorobenzyl)-5,6,8,9-tetrahydro-7H-pyrido[4′,3′:4,5]pyrrolo[2,3-b]pyridin-7-yl]-2-oxoethyl}bicyclo[2.2.1]heptane-1-carboxylic acid] was run?
A: 98.9%

Same assay, conditions: 16:0-LPC substrate, 37° C., 24 hours

Q: How did the IC50 turn out when `CC(C)(CCCC(=O)N1CCc2c(n(Cc3ccc(F)cc3F)c3ncccc23)C1)C(=O)O` [Example 12(97), 6-[9-(2,4-difluorobenzyl)-5,6,8,9-tetrahydro-7H-pyrido[4′,3′:4,5]pyrrolo[2,3-b]pyridin-7-yl]-2,2-dimethyl-6-oxohexanoic acid] was run?
A: 0.0067 µM

Q: Which IC50 does the source give for `Cc1cc(CC(=O)N2CCc3c(n(Cc4csc(Cl)c4)c4ncccc34)C2)ccc1C(=O)O` [Example 51(48), 4-(2-{9-[(5-chloro-3-thienyl)methyl]-5,6,8,9-tetrahydro-7H-pyrido[4′,3′:4,5]pyrrolo[2,3-b]pyridin-7-yl}-2-oxoethyl)-2-methylbenzoic acid] here?
A: 0.0078 µM

Q: For `CC1(C)[C@@H](CC(=O)N2CCc3c(n(Cc4ccc(F)c(Cl)c4)c4ncccc34)C2)CC[C@@]1(C)C(=O)O` [Example 31(169), (1R,3R)-3-{2-[9-(3-chloro-4-fluorobenzyl)-5,6,8,9-tetrahydro-7H-pyrido[4′,3′:4,5]pyrrolo[2,3-b]pyridin-7-yl]-2-oxoethyl}-1,2,2-trimethylcyclopentanecarboxylic acid], which IC50 is on record?
A: 0.013 µM

Q: `O=C(CC12CCC(C(=O)O)(CC1)CC2)N1CCc2c(n(Cc3cccc(F)c3)c3ncccc23)C1` [Example 31(127), 4-{2-[9-(3-fluorobenzyl)-5,6,8,9-tetrahydro-7H-pyrido[4′,3′:4,5]pyrrolo[2,3-b]pyridin-7-yl]-2-oxoethyl}bicyclo[2.2.2]octane-1-carboxylic acid] was tested. Which IC50 did it give?
A: 0.011 µM

Q: Which IC50 does the source give for `C[C@]1(C(=O)O)CC[C@H](CC(=O)N2CCc3c(n(Cc4ccc(Cl)cc4)c4ncccc34)C2)CC1` [Example 48(9), trans-4-{2-[9-(4-chlorobenzyl)-5,6,8,9-tetrahydro-7H-pyrido[4′,3′:4,5]pyrrolo[2,3-b]pyridin-7-yl]-2-oxoethyl}-1-methylcyclohexanecarboxylic acid] here?
A: 0.025 µM

Q: `O=C(CC12CCC(C(=O)O)(CC1)CC2)N1CCc2c(n(Cc3ccc(Cl)cc3)c3ncccc23)C1` [Example 31(140), 4-{2-[9-(4-chlorobenzyl)-5,6,8,9-tetrahydro-7H-pyrido[4′,3′:4,5]pyrrolo[2,3-b]pyridin-7-yl]-2-oxoethyl}bicyclo[2.2.2]octane-1-carboxylic acid] was tested. Which IC50 did it give?
A: 0.011 µM

Q: With `O=C(O)C1CCCN(CC(=O)N2CCc3c(n(Cc4cccc(F)c4)c4ncccc34)C2)C1` (centres unmarked) [Example 35(2), 1-{2-[9-(3-fluorobenzyl)-5,6,8,9-tetrahydro-7H-pyrido[4′,3′:4,5]pyrrolo[2,3-b]pyridin-7-yl]-2-oxoethyl}-3-piperidinecarboxylic acid] as the compound, how does the IC50 read?
A: 0.11 µM

Q: Which IC50 does the source give for `O=C(O)CCCCC(=O)N1CCc2c(n(Cc3cccc(F)c3)c3ncccc23)C1` [Example 9, 6-[9-(3-fluorobenzyl)-5,6,8,9-tetrahydro-7H-pyrido[4′,3′:4,5]pyrrolo[2,3-b]pyridin-7-yl]-6-oxohexanoic acid] here?
A: 0.091 µM

Q: With `C[C@@H]1CN(CC(=O)N2CCc3c(n(Cc4ccc(Cl)s4)c4ccccc34)C2)C[C@H](C)N1CC(=O)O` [Example 35(122), rel-[(2R,6S)-4-(2-{9-[(5-chloro-2-thienyl)methyl]-1,3,4,9-tetrahydro-2H-beta-carbolin-2-yl}-2-oxoethyl)-2,6-dimethyl-1-piperazinyl]acetic acid dihydrochloride] as the compound, how does the IC50 read?
A: 0.035 µM
